Laboratory results from patent publication US10323038B2, “Pyrazole compounds and methods of making and using same” (ABIDE THERAPEUTICS, INC., priority 2015, dated 2019).
One block for each compound: values may come before it.

Tests used:
Assay type in all cases: biochemical
MAGL [1] = target: MAGL (Homo sapiens (Human), UniProt Q99685); test: In vitro competitive activity-based protein profiling, MAGL (human); details: human proteome; for inhibition at 10 µM: read-out: MAGL % inh. 10 μM (human); for inhibition at 1 µM: read-out: MAGL % inh. 1 μM (human)
MAGL (Homo sapiens (Human), UniProt Q99685), sequence (Q99685 whole entry): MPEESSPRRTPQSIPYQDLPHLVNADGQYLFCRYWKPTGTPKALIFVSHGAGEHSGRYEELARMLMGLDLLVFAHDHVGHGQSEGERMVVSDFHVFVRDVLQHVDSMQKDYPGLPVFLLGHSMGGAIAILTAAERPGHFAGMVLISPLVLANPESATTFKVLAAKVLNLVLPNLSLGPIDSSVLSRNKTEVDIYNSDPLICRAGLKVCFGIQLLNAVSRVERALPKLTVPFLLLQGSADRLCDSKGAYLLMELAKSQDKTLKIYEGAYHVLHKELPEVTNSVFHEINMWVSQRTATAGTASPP
Description: (§1) In Vitro Competitive Activity-Based Protein Profiling.
(§2) Proteomes (mouse brain membrane fraction or cell lysates for mouse assays; human prefrontal cortex or cell membrane fractions for human assays) (50 μL, 1.0 mg/mL total protein concentration) were preincubated with varying concentrations of inhibitors at 37° C. After 30 min, FP—Rh or HT-01 (1.0 μL, 50 μM in DMSO) was added and the mixture was incubated for another 30 min at 37° C. Reactions were quenched with SDS loading buffer (15 μL-4×) and run on SDS-PAGE. Following gel imaging, serine hydrolase activity was determined by measuring fluorescent intensity of gel bands corresponding to MAGL and FAAH using ImageJ 1.43u software.

FAAH [2] = target: FAAH (Homo sapiens (Human), UniProt O00519); test: In vitro competitive activity-based protein profiling, FAAH (human); details: human proteome; for inhibition at 10 µM: read-out: FAAH % inh. 10 μM (human); for inhibition at 1 µM: read-out: FAAH % inh. 1 μM (human)
FAAH (Homo sapiens (Human), UniProt O00519), sequence (O00519 whole entry): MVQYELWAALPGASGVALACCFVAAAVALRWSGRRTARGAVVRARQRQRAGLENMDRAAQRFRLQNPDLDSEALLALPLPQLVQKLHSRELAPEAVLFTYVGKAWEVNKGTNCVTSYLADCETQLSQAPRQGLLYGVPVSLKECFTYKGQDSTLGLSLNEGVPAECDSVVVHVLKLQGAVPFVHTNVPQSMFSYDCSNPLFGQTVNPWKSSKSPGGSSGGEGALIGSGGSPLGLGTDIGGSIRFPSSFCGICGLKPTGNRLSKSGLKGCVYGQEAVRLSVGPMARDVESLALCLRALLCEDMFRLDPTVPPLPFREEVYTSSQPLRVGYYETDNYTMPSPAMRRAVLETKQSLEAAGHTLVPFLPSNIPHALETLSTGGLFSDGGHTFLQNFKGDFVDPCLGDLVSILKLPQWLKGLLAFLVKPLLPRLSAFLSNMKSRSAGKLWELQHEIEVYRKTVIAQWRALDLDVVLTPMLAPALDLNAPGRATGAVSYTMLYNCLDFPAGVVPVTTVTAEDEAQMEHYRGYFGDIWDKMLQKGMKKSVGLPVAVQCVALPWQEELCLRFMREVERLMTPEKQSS
Description: as §1, §2

FAAH [3] = target: FAAH (Mus musculus (Mouse), UniProt O08914); test: In vitro competitive activity-based protein profiling, FAAH (mouse); details: 1 μM, read-out: FAAH % inh. 1 μM (mouse)
FAAH (Mus musculus (Mouse), UniProt O08914), sequence (O08914 whole entry): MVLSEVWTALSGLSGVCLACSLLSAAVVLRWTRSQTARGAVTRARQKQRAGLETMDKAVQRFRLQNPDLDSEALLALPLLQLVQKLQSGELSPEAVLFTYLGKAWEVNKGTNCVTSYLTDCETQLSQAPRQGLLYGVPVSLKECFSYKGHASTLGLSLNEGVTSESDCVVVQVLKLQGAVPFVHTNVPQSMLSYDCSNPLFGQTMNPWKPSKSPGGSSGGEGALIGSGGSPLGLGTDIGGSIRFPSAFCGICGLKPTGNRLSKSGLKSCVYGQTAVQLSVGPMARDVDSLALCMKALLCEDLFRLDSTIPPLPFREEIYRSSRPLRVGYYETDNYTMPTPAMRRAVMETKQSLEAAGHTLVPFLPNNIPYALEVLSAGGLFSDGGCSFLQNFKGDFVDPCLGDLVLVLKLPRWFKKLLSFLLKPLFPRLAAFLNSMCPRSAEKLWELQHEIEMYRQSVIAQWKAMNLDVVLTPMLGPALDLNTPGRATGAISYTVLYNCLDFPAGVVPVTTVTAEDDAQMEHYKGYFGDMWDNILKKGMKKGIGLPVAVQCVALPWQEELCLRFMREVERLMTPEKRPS
Summary of the method: (§3)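 Gel-based read-out: fluorescence intensity of MAGL and FAAH bands after SDS-PAGE gave serine hydrolase activity. Proteomes at 1.0 mg/mL were pretreated 30 min at 37° C with inhibitor over a concentration range, then labelled 30 min with FP-Rh or HT-01 (stock 50 μM in DMSO).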

MAGL [4] = target: MAGL (Mus musculus (Mouse), UniProt O35678); test: In vitro competitive activity-based protein profiling, MAGL (mouse); details: 1 μM, read-out: MAGL % inh. 1 μM (mouse)
MAGL (Mus musculus (Mouse), UniProt O35678), sequence (O35678 whole entry): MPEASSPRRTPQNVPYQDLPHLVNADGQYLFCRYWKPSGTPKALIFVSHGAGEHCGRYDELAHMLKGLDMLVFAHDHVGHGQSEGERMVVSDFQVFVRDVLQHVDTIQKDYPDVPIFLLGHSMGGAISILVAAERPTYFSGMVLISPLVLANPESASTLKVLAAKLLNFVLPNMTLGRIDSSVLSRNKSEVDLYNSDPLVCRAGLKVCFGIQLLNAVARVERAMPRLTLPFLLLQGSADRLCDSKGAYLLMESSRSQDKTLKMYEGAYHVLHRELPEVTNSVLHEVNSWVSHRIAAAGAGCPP
Summary of the method: as §3

SMILES: COc1ccccc1CN1CCC2(CCN(C(=O)n3cc(N(C)C(C)=O)cn3)C2)C1 (stereo not drawn) [Example 56, N-(1-(7-(2-methoxybenzyl)-2,7-diazaspiro[4.4]nonane-2-carbonyl)-1H-pyrazol-4-yl)-N-methylacetamide]
inhibition at 10 µM (MAGL [1]): ≥ 75%
inhibition at 10 µM (FAAH [2]): ≥ 75%
inhibition at 1 µM (FAAH [3]): 0 to 25%
inhibition at 1 µM (MAGL [4]): 0 to 25%

SMILES: CC(=O)N(C)c1cnn(C(=O)N2CCC3(CCN(Cc4ccc(F)cc4)C3)C2)c1 (stereo not drawn) [Example 75, N-(1-(7-(4-fluorobenzyl)-2,7-diazaspiro[4.4]nonane-2-carbonyl)-1H-pyrazol-4-yl)-N-methylacetamide]
inhibition at 10 µM (MAGL [1]): ≥ 75%
inhibition at 10 µM (FAAH [2]): ≥ 75%
inhibition at 1 µM (FAAH [3]): 50 to 75%
inhibition at 1 µM (MAGL [4]): 0 to 25%

SMILES: CC(=O)N(C)c1cnn(C(=O)N2CCC3(CCN(Cc4ccc(N5CCOCC5)cc4C)C3)C2)c1 (stereo not drawn) [Example 5, N-methyl-N-(1-(7-(2-methyl-4-morpholinobenzyl)-2,7-diazaspiro[4.4]nonane-2-carbonyl)-1H-pyrazol-4-yl)acetamide]
inhibition at 10 µM (MAGL [1]): ≥ 75%
inhibition at 10 µM (FAAH [2]): ≥ 75%
inhibition at 1 µM (FAAH [3]): 50 to 75%
inhibition at 1 µM (MAGL [4]): 0 to 25%

SMILES: CS(=O)(=O)Nc1cnn(C(=O)N2CCC3(CCN(Cc4ccc(Cl)c(Cl)c4)C3)C2)c1 (stereo not drawn) [Example 283, N-(1-(7-(3,4-dichlorobenzyl)-2,7-diazaspiro[4.4]nonane-2-carbonyl)-1H-pyrazol-4-yl)methanesulfonamide]
inhibition at 1 µM (MAGL [1]): ≥ 75%
inhibition at 1 µM (FAAH [2]): ≥ 75%

SMILES: CC(=O)N(C)c1cnn(C(=O)N2CCC3(CCN(Cc4cccc(N5CCOCC5)c4)C3)C2)c1 (stereo not drawn) [Example 48, N-methyl-N-(1-(7-(3-morpholinobenzyl)-2,7-diazaspiro[4.4]nonane-2-carbonyl)-1H-pyrazol-4-yl)acetamide]
inhibition at 10 µM (MAGL [1]): ≥ 75%
inhibition at 10 µM (FAAH [2]): ≥ 75%
inhibition at 1 µM (FAAH [3]): 25 to 50%
inhibition at 1 µM (MAGL [4]): 0 to 25%

SMILES: CC(=O)N(C)c1cnn(C(=O)N2CCC3(CCN(Cc4cccc(F)c4)C3)C2)c1 (stereo not drawn) [Example 79, N-(1-(7-(3-fluorobenzyl)-2,7-diazaspiro[4.4]nonane-2-carbonyl)-1H-pyrazol-4-yl)-N-methylacetamide]
inhibition at 10 µM (MAGL [1]): ≥ 75%
inhibition at 10 µM (FAAH [2]): ≥ 75%
inhibition at 1 µM (FAAH [3]): ≥ 75%
inhibition at 1 µM (MAGL [4]): 0 to 25%

SMILES: CC(=O)N(C)c1cnn(C(=O)N2CCC3(CCN(Cc4ccccc4N4CCCC4)C3)C2)c1 (stereo not drawn) [Example 60, N-methyl-N-(1-(7-(2-(pyrrolidin-1-yl)benzyl)-2,7-diazaspiro[4.4]nonane-2-carbonyl)-1H-pyrazol-4-yl)acetamide]
inhibition at 10 µM (MAGL [1]): ≥ 75%
inhibition at 10 µM (FAAH [2]): ≥ 75%
inhibition at 1 µM (FAAH [3]): 0 to 25%
inhibition at 1 µM (MAGL [4]): 0 to 25%

SMILES: CC(=O)N(C)c1cnn(C(=O)N2CCC3(CCN(Cc4cccc(C)c4)C3)C2)c1 (stereo not drawn) [Example 80, N-methyl-N-(1-(7-(3-methylbenzyl)-2,7-diazaspiro[4.4]nonane-2-carbonyl)-1H-pyrazol-4-yl)acetamide]
inhibition at 10 µM (MAGL [1]): ≥ 75%
inhibition at 10 µM (FAAH [2]): ≥ 75%
inhibition at 1 µM (FAAH [3]): 50 to 75%
inhibition at 1 µM (MAGL [4]): 0 to 25%

SMILES: CC(=O)N(C)c1cnn(C(=O)N2CCC3(CCN(Cc4ccccc4C)C3)C2)c1 (stereo not drawn) [Example 54, N-methyl-N-(1-(7-(2-methylbenzyl)-2,7-diazaspiro[4.4]nonane-2-carbonyl)-1H-pyrazol-4-yl)acetamide]
inhibition at 10 µM (MAGL [1]): ≥ 75%
inhibition at 10 µM (FAAH [2]): ≥ 75%
inhibition at 1 µM (FAAH [3]): ≥ 75%
inhibition at 1 µM (MAGL [4]): 0 to 25%

SMILES: CS(=O)(=O)Nc1cnn(C(=O)N2CCC3(CCN(Cc4cccc(Cl)c4Cl)C3)C2)c1 (stereo not drawn) [Example 288, N-(1-(7-(2,3-dichlorobenzyl)-2,7-diazaspiro[4.4]nonane-2-carbonyl)-1H-pyrazol-4-yl)methanesulfonamide]
inhibition at 1 µM (MAGL [1]): ≥ 75%
inhibition at 1 µM (FAAH [2]): ≥ 75%

SMILES: CS(=O)(=O)Nc1cnn(C(=O)N2CCC3(CCN(Cc4ccc(N5CCCC5)cc4C(F)(F)F)C3)C2)c1 (stereo not drawn) [Example 285, N-(1-(7-(4-(pyrrolidin-1-yl)-2-(trifluoromethyl)benzyl)-2,7-diazaspiro[4.4]nonane-2-carbonyl)-1H-pyrazol-4-yl)methanesulfonamide]
inhibition at 1 µM (MAGL [1]): ≥ 75%
inhibition at 1 µM (FAAH [2]): ≥ 75%

SMILES: CC(=O)N(C)c1cnn(C(=O)N2CC3(CCN(Cc4ccccc4Cl)CC3)C2)c1 [Example 86, N-(1-(7-(2-chlorobenzyl)-2,7-diazaspiro[3.5]nonane-2-carbonyl)-1H-pyrazol-4-yl)-N-methylacetamide]
inhibition at 1 µM (FAAH [3]): ≥ 75%
inhibition at 1 µM (MAGL [4]): 50 to 75%

Now from value to compound:

inhibition at 1 µM (MAGL [1]): ≥ 75%
inhibition at 1 µM (FAAH [2]): 50 to 75%
SMILES: CS(=O)(=O)Nc1cnn(C(=O)N2CCN(Cc3ccc(-c4cccnn4)cc3C(F)(F)F)CC2)c1 [Example 311, N-(1-(4-(4-(pyridazin-3-yl)-2-(trifluoromethyl)benzyl)piperazine-1-carbonyl)-1H-pyrazol-4-yl)methanesulforamide]

inhibition at 1 µM (MAGL [1]): ≥ 75%
inhibition at 1 µM (FAAH [2]): ≥ 75%
SMILES: CN(Cc1ccccc1C(F)(F)F)[C@@H]1C[C@@H]2CN(C(=O)n3cc(NS(C)(=O)=O)cn3)C[C@@H]2C1 [Example 300, N-(1-(cis-5-(methyl(2-(trifluoromethyl)benzyl)amino)octahydrocyclopenta[c]pyrrole-2-carbonyl)-1H-pyrazol-4-yl)methanesulfonamide]

inhibition at 1 µM (MAGL [1]): ≥ 75%
inhibition at 1 µM (FAAH [2]): 25 to 50%
SMILES: CS(=O)(=O)Nc1cnn(C(=O)N2CCN(Cc3ccc(-c4ccnnc4)cc3C(F)(F)F)CC2)c1 [Example 312, N-(1-(4-(4-(pyridazin-4-yl)-2-(trifluoromethyl)benzyl)piperazine-1-carbonyl)-1H-pyrazol-4-yl)methanesulfonamide]

inhibition at 1 µM (MAGL [1]): ≥ 75%
inhibition at 1 µM (FAAH [2]): ≥ 75%
SMILES: CC(=O)Nc1cnn(C(=O)N2CC3CN(Cc4cccc(Oc5ccc(Cl)cc5)c4)CC3C2)c1 (stereo not drawn) [Example 316, N-(1-(5-(3-(4-chlorophenoxy)benzyl)octahydropyrrolo [3,4-c]pyrrole-2-carbonyl)-1H-pyrazol-4-yl)acetamide]

inhibition at 1 µM (MAGL [1]): 50 to 75%
inhibition at 1 µM (FAAH [2]): 0 to 25%
SMILES: Cc1nnc(-c2ccc(CN3CCN(C(=O)n4cc(NS(C)(=O)=O)cn4)CC3)c(C(F)(F)F)c2)o1 [Example 306, N-(1-(4-(4-(5-methyl-1,3,4-oxadiazol-2-yl)-2-(trifluoromethyl)benzyl)piperazine-1-carbonyl)-1H-pyrazol-4-yl)methanesulfonamide]

inhibition at 1 µM (MAGL [1]): ≥ 75%
inhibition at 1 µM (FAAH [2]): ≥ 75%
SMILES: CS(=O)(=O)Nc1cnn(C(=O)N2CCC3(CCN(Cc4ccc(N5CCCC5)c(Cl)c4)C3)CC2)c1 [Example 298, N-(1-(2-(3-chloro-4-(pyrrolidin-1-yl)benzyl)-2,8-diazaspiro[4.5]|decane-8-carbonyl)-1H-pyrazol-4-yl)methanesulfonamide]

inhibition at 1 µM (MAGL [1]): 25 to 50%
inhibition at 1 µM (FAAH [2]): ≥ 75%
SMILES: CS(=O)(=O)Nc1cnn(C(=O)N2CCN(Cc3ccc(-c4nc5ccccc5o4)cc3C(F)(F)F)CC2)c1 [Example 304, N-(1-(4-(4-(benzo[d]oxazol-2-yl)-2-(trifluoromethyl)benzyl)piperazine-1-carbonyl)-1H-pyrazol-4-yl)methanesulfonamide]

inhibition at 1 µM (MAGL [1]): ≥ 75%
inhibition at 1 µM (FAAH [2]): ≥ 75%
SMILES: CS(=O)(=O)Nc1cnn(C(=O)N2CCN(Cc3ccc(-c4nc5ccccc5s4)cc3C(F)(F)F)CC2)c1 [Example 305, N-(1-(4-(4-(benzo[d]thiazol-2-yl)-2-(trifluoromethyl)benzyl)piperazine-1-carbonyl)-1H-pyrazol-4-yl)methanesulfonamide]

inhibition at 1 µM (MAGL [1]): ≥ 75%
inhibition at 1 µM (FAAH [2]): ≥ 75%
SMILES: CS(=O)(=O)Nc1cnn(C(=O)N2CCN(Cc3ccc(-c4ncccn4)cc3C(F)(F)F)CC2)c1 [Example 310]

inhibition at 1 µM (MAGL [1]): 25 to 50%
inhibition at 1 µM (FAAH [2]): ≥ 75%
SMILES: C#Cc1ccc(CN2CCN(C(=O)n3cc(NS(C)(=O)=O)cn3)CC2)cc1 [Example 318, N-(1-(4-(4-ethynylbenzyl)piperazine-1-carbonyl)-1H-pyrazol-4-yl)methanesulfonamide]

inhibition at 10 µM (MAGL [1]): ≥ 75%
inhibition at 10 µM (FAAH [2]): ≥ 75%
SMILES: CS(=O)(=O)Nc1cnn(C(=O)N2CCN(Cc3ccc(-c4ccc(C(F)(F)F)nc4)cc3C(F)(F)F)CC2)c1 [Example 301, N-(1-(4-(2-(trifluoromethyl)-4-(6-(trifluoromethyl)pyridin-3-yl)benzyl)piperazine-1-carbonyl)-1H-pyrazol-4-yl)methanesulfonamide]

inhibition at 1 µM (MAGL [1]): ≥ 75%
inhibition at 1 µM (FAAH [2]): 0 to 25%
SMILES: Cc1nccn1-c1ccc(CN2CCN(C(=O)n3cc(NS(C)(=O)=O)cn3)CC2)c(C(F)(F)F)c1 [Example 308, N-(1-(4-(4-(2-methyl-1H-imidazol-1-yl)-2-(trifluoromethyl)benzyl)piperazine-1-carbonyl)-1H-pyrazol-4-yl)methanesulfonamide]

inhibition at 1 µM (MAGL [1]): ≥ 75%
inhibition at 1 µM (FAAH [2]): ≥ 75%
SMILES: CS(=O)(=O)Nc1cnn(C(=O)N2CCN(Cc3ccc(-c4cncnc4)cc3C(F)(F)F)CC2)c1 [Example 290, N-(1-(4-(4-(pyrimidin-5-yl)-2-(trifluoromethyl)benzy1)piperazine-1-carbonyl)-1H-pyrazol-4-yl)methanesulfonamide]
